Measurements as given in article PMC6651501, “Design, Synthesis and Biological Evaluation of Novel Osimertinib-Based HDAC and EGFR Dual Inhibitors” (Molecules, 2019).

Columns and labels:
MDA-MB-231 = assay: In vitro anti-proliferative MTT assay; conditions: Homo sapiens, MDA-MB-231, 72 h, read-out: IC50 MDA-MB-231
Method: (§2) Cell proliferation assay was determined by the MTT (3-[4,5-dimethyl-2-thiazolyl]-2,5-diphenyl-2H-tetrazolium bromide) method. Briefly, cells were passaged the day before dosing into a 96-well plate, allowed to grow for 12 h, and then treated with different concentrations of compound for 72 h. A 0.5% MTT solution was added to each well. After incubation for another 4 h, formazan formed from MTT was extracted by adding 200 μL of DMSO. Absorbance was then determined using a microplate reader at 570 nm.

HT-29 = assay: In vitro anti-proliferative MTT assay; conditions: Homo sapiens, HT-29, 72 h, read-out: IC50 HT-29
Method: as §2

HeLa = assay: In vitro anti-proliferative MTT assay; conditions: Homo sapiens, 72 h, read-out: IC50 HeLa
Method: as §2

KG-1 = assay: In vitro anti-proliferative MTT assay; conditions: Homo sapiens, KG-1, 72 h, read-out: IC50 KG-1
Method: as §2

MDA-MB-468 = assay: In vitro anti-proliferative MTT assay; conditions: Homo sapiens, MDA-MB-468, 72 h, read-out: IC50 MDA-MB-468
Method: as §2

A549 = assay: In vitro anti-proliferative MTT assay; format: cell-based; conditions: Homo sapiens, 72 h
PC-3 = assay: In vitro anti-proliferative MTT assay; format: cell-based; conditions: Homo sapiens, 72 h
EGFR (T790M) = EGFR (T790M) (Homo sapiens, UniProt P00533, T790M); assay: In vitro EGFR inhibition, Kinase-Glo Plus luminescence kinase assay; format: biochemical; conditions: for inhibition at 1 µM: 1 μM compound, read-out: EGFR (T790M) Inhibition Rate at 1 μM; for IC50: 10 µM ATP
Method: (§1) The assay was performed using Kinase-Glo Plus luminescence kinase assay kit. All of the enzymatic reactions were conducted at 30 °C for 40 min. The 50 µL reaction mixture in assay buffer contained 10 µM ATP, EGFR kinases, and different concentrations of compounds. Kinase activity was measured by quantitating the amount of ATP remaining in solution following a kinase reaction. The luminescent signal from the assay is correlated with the amount of ATP present and is inversely correlated with the amount of kinase activity. The IC50 values were calculated using nonlinear regression with normalized dose−response fit using Prism GraphPad software (GraphPad Software, San Diego, CA, USA).

[1] = test system: HDAC (HeLa cell nuclear extract, mainly contains HDAC1 and 2); assay: In vitro HDACs inhibition fluorescent assay (HeLa cell nuclear extract); conditions: read-out: HDAC IC50; HeLa cell nuclear extract as enzyme source
Method: The HDAC inhibitory activities of all the target compounds were evaluated using HeLa cell nuclear extract (mainly contains HDAC1 and 2) as enzyme source.
In brief, 10 μL of HeLa cell nuclear extract was mixed with different concentrations of tested compound (50 μL). […] The inhibition ratios were calculated from the fluorescence intensity readings of tested wells relative to those of control wells, and the IC50 values were calculated using a regression analysis of the concentration/inhibition data.

EGFR (WT) = EGFR (WT) (Homo sapiens, UniProt P00533); assay: In vitro EGFR inhibition, Kinase-Glo Plus luminescence kinase assay; format: biochemical; conditions: 10 µM ATP
Method: as §1

BRD4 (BD1) = target: T1, BRD4 (BD1) (Homo sapiens, UniProt O60885); assay: BRD4 inhibition assay (TR-FRET); format: binding; conditions: 1 μM compound
T1 construct: using the recombinant BRD4 (BD1) and its corresponding ligand (BET)
Method: The assay was performed by TR-FRET technology using the recombinant BRD4 (BD1) and its corresponding ligand (BET). The TR-FRET signal from the assay is correlated with the amount of ligand binding to the bromodomain. All of the binding reactions were conducted at room temperature. The 20 µL reaction mixture in assay buffer contained bromodomains, BET ligand and the indicated amount of inhibitor. For the negative control (blank), 5 µL of the assay buffer was added instead of the BET ligand. The reaction mixture was incubated for 120 min, then TR-FRET signal was measured using Tecan Infinite M1000 plate reader (Tecan, Männedorf, Switzerland).

LSD1 = LSD1 (Homo sapiens, UniProt O60341); assay: Amplex red coupled LSD1 inhibition assay; format: biochemical; conditions: 10 μM compound
Method: Lysine specific demethylase 1 (LSD1, also known as KDM1A) is a kind of epigenetic eraser, which catalyzes the oxidative demethylation of histone 3 methyllysine 4 (H3K4me1) and histone 3 dimethyllysine 4 (H3K4me2). It has been reported that LSD1 is overexpressed in various cancer cells and tissues, and regarded as a potential anticancer target.
Amplex red coupled LSD1 inhibition assay was carried out following reported method. In brief, the compounds were incubated with the recombinant LSD1 and H3K4me2. After that, the fluorescence was measured at excitation wavelength 530 nm and emission wavelength 590 nm in order to evaluate the inhibition rate of the candidate compound.

[2] = test system: thirteen cancer-related kinases; assay: Kinases inhibition assay (Eurofins Cerep, LANCE detection); format: biochemical, human; conditions: 100 nM compound, Figure 4
Method: Compound 9E was further tested against thirteen cancer-related kinases to characterize its protein kinase selective profile.
The kinase inhibition assays were performed by Eurofins Cerep Corporation in France. In brief, evaluation of the effects of compounds on the activity of the human kinases was quantified by measuring the phosphorylation of the corresponding substrate using human recombinant enzymes and the LANCE detection method.

Chain of EGFR (T790M) (P00533 25-1210 T790M): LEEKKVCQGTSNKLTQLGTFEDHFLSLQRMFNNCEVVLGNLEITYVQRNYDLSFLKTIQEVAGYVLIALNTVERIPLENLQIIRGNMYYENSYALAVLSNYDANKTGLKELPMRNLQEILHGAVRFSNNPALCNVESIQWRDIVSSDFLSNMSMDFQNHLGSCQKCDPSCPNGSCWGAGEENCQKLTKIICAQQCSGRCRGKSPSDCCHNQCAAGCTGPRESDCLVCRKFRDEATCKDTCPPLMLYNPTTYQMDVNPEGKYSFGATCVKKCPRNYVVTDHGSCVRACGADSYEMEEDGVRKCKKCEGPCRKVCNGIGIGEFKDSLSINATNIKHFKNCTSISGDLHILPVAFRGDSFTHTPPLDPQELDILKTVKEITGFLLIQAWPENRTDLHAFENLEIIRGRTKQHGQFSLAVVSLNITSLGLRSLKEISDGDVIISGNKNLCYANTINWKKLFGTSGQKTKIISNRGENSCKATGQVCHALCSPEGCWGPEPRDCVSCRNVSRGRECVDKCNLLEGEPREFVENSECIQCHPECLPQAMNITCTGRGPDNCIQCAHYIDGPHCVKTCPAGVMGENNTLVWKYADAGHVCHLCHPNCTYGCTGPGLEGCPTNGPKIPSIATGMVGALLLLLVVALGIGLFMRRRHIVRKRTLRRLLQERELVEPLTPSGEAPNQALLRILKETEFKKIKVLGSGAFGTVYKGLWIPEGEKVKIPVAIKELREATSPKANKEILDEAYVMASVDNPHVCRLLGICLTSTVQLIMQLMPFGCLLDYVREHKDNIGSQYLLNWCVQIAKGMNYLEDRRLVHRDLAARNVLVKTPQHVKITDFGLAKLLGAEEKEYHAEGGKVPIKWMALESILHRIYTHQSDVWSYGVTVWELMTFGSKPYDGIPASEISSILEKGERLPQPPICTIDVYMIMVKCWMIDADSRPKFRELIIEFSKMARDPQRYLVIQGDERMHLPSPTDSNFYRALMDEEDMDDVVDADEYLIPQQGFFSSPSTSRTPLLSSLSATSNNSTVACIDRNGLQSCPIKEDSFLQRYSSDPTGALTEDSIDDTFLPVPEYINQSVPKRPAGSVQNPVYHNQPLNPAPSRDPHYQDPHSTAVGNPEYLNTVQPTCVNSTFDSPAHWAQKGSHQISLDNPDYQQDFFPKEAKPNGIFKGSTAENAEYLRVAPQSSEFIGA
Chain of EGFR (WT) (P00533 25-1210): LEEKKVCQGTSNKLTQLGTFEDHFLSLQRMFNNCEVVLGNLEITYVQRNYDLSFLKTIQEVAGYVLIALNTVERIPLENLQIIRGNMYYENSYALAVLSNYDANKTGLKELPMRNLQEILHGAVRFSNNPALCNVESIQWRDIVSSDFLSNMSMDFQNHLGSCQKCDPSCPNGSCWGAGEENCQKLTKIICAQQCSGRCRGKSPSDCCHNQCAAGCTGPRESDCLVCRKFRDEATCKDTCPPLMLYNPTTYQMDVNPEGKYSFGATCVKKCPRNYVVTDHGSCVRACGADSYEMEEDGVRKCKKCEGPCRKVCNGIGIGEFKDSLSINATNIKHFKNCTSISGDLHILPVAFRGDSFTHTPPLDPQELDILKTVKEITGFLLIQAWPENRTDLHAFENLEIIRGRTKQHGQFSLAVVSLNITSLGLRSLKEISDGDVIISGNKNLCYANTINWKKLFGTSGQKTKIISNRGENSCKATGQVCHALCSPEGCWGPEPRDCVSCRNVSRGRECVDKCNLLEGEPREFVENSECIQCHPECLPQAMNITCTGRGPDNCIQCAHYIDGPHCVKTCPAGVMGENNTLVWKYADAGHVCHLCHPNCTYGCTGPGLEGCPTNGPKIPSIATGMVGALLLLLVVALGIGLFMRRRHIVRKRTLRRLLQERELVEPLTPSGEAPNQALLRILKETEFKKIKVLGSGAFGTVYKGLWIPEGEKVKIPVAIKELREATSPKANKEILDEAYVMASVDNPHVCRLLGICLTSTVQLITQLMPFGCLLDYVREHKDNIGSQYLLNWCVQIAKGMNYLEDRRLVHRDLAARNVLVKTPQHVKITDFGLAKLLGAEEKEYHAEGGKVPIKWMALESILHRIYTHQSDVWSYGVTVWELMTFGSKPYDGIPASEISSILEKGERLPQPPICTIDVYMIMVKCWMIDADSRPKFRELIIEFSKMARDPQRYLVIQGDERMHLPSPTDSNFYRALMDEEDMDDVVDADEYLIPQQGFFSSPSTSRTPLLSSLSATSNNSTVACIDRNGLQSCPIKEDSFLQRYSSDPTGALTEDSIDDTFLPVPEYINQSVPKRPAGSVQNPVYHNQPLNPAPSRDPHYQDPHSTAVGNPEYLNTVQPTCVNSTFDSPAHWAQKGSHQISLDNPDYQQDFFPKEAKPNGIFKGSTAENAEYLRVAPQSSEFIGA

IC50 (MDA-MB-231) [µM]	IC50 (HT-29) [µM]	IC50 (HeLa) [µM]	IC50 (MDA-MB-468) [µM]	IC50 (A549) [µM]	inhibition at 1 µM (EGFR (T790M)) [%]	melting point [°C]	IC50 [1] [µM]	Compound	IC50 (KG-1) [µM]	further results
3.54	0.87	3.27	1.3	1.97	–	–	–	C=CC(=O)Nc1cc(Nc2nccc(-c3cn(C)c4ccccc34)n2)c(OC)cc1N(C)CCN(C)C [AZD9291, osimertinib]	0.53	IC50 (PC-3): 1.23 µM
–	–	–	–	–	36	164 to 167	–	Cn1cc(-c2ccnc(Nc3ccc(C(=O)NCCC(=O)NO)cc3)n2)c2ccccc21 [Compound 5A, N-(3-(hydroxyamino)-3-oxopropyl)-4-((4-(1-methyl-1H-indol-3-yl)pyrimidin-2-yl)amino) benzamide]	–	–
–	–	–	–	–	34	165 to 168	–	Cn1cc(-c2ccnc(Nc3ccc(C(=O)NCCCC(=O)NO)cc3)n2)c2ccccc21 [Compound 5B, N-(4-(hydroxyamino)-4-oxobutyl)-4-((4-(1-methyl-1H-indol-3-yl)pyrimidin-2-yl)amino) benzamide]	–	–
–	–	–	–	–	42	144 to 147	0.462	Cn1cc(-c2ccnc(Nc3ccc(C(=O)NCCCCC(=O)NO)cc3)n2)c2ccccc21 [Compound 5C, N-(5-(hydroxyamino)-5-oxopentyl)-4-((4-(1-methyl-1H-indol-3-yl)pyrimidin-2-yl)amino) benzamide]	–	–
1.16	2.94	4.06	0.66	3.56	35	168 to 170	0.023	Cn1cc(-c2ccnc(Nc3ccc(C(=O)NCCCCCC(=O)NO)cc3)n2)c2ccccc21 [Compound 5D, N-(6-(hydroxyamino)-6-oxohexyl)-4-((4-(1-methyl-1H-indol-3-yl)pyrimidin-2-yl)amino) benzamide]	1.47	–
0.66	1.99	2.79	0.33	2.4	44	161 to 163	0.105	Cn1cc(-c2ccnc(Nc3ccc(C(=O)NCCCCCCC(=O)NO)cc3)n2)c2ccccc21 [Compound 5E, N-(7-(hydroxyamino)-7-oxoheptyl)-4-((4-(1-methyl-1H-indol-3-yl)pyrimidin-2-yl)amino) benzamide]	0.52	IC50 (EGFR (WT)): 3.2 µM; IC50 (EGFR (T790M)): 1.2 µM; IC50 (PC-3): 2.25 µM
–	–	–	–	–	38	151 to 153	–	COc1cc(NC(=O)CCC(=O)NO)ccc1Nc1nccc(-c2cn(C)c3ccccc23)n1 [Compound 9A, N^1-hydroxy-N^4-(3-methoxy-4-((4-(1-methyl-1H-indol-3-yl)pyrimidin-2-yl)amino)phenyl) succinimide]	–	–
–	–	–	–	–	37	146 to 148	–	COc1cc(NC(=O)CCCC(=O)NO)ccc1Nc1nccc(-c2cn(C)c3ccccc23)n1 [Compound 9B, N^1-hydroxy-N^5-(3-methoxy-4-((4-(1-methyl-1H-indol-3-yl)pyrimidin-2-yl)amino)phenyl) glutaramide]	–	–
–	–	–	–	–	12	118 to 120	0.397	COc1cc(NC(=O)CCCCC(=O)NO)ccc1Nc1nccc(-c2cn(C)c3ccccc23)n1 [Compound 9C, N^1-hydroxy-N^6-(3-methoxy-4-((4-(1-methyl-1H-indol-3-yl)pyrimidin-2-yl)amino)phenyl) adipamide]	–	–
3.69	4.13	5.64	1.07	5.11	13	–	0.121	COc1cc(NC(=O)CCCCCC(=O)NO)ccc1Nc1nccc(-c2cn(C)c3ccccc23)n1 [Compound 9D, N^1-hydroxy-N^7-(3-methoxy-4-((4-(1-methyl-1H-indol-3-yl)pyrimidin-2-yl)amino)phenyl) heptanediamide]	3.62	IC50 (PC-3): 5.45 µM
0.6	0.79	1.85	0.23	2.19	15	–	0.085	COc1cc(NC(=O)CCCCCCC(=O)NO)ccc1Nc1nccc(-c2cn(C)c3ccccc23)n1 [Compound 9E, N^1-hydroxy-N^8-(3-methoxy-4-((4-(1-methyl-1H-indol-3-yl)pyrimidin-2-yl)amino)phenyl) octanediamide]	0.24	IC50 (EGFR (WT)): 5.7 µM; IC50 (EGFR (T790M)): 5 µM; BRD4 Inhibition Rate at 1 μM (BRD4 (BD1)): not active; inhibition at 1 µM (BRD4 (BD1); read-out: BRD4 Inhibition Rate at 1 μM): 0%; LSD1 Inhibition Rate at 10 μM (LSD1): no significant inhibition; inhibition at 10 µM (LSD1; read-out: LSD1 Inhibition Rate at 10 μM): 13%; Inhibition of 13 protein kinases at 100 nM [2]: no significant inhibition; IC50 (PC-3): 3.39 µM
–	–	–	–	–	41	108 to 111	–	Cn1cc(-c2ccnc(Nc3ccc(C(=O)NO)cc3)n2)c2ccccc21 [Compound 10A, N-hydroxy-4-((4-(1-methyl-1H-indol-3-yl)pyrimidin-2-yl)amino) benzamide]	–	–
–	–	–	–	–	40	164 to 168	–	Cn1cc(-c2ccnc(Nc3ccc(C(=O)Nc4ccccc4N)cc3)n2)c2ccccc21 [Compound 10B, N-(2-aminophenyl)-4-((4-(1-methyl-1H-indol-3-yl)pyrimidin-2-yl)amino) benzamide]	–	–

Compound	IC50 (MDA-MB-231) [µM]	IC50 (HT-29) [µM]	IC50 (HeLa) [µM]	IC50 (MDA-MB-468) [µM]	IC50 (A549) [µM]	inhibition at 1 µM (EGFR (T790M)) [%]	melting point [°C]	IC50 [1] [µM]	IC50 (KG-1) [µM]	further results
O=C(CCCCCCC(=O)Nc1ccccc1)NO [SAHA, suberoylanilide hydroxamic acid, reference compound]	–	–	–	–	2.13	–	–	–	–	–
